We go through 2 molecules from US20240287064A1, “TRICYCLIC COMPOUND USED AS GPR84 ANTAGONIST” (Wuhan Humanwell Innovative Drug Research and Development …, priority 2021, published 2024).

One data set addresses T1, human GPR84 receptor (Homo sapiens, UniProt Q9NQS5).
T1 construct: expressed in transfected cells; host or cells: CHO
Kind of data set: GPR84 antagonistic effect determination (cAMP assay, forskolin and 6-OAU stimulation). The class given is cell-based. To be noted: CHO stably transfected cell line highly expressing human GPR84; 2.5 μM Forskolin & 200 nM 6-OAU; cAMP readout; read-out: Antagonistic effect against GPR84, IC50. For orientation: cAMP levels reflect the balance of adenylyl cyclase and phosphodiesterase activity.

Data set [1] can be described thus: Pharmacokinetic experiment in mice. The class given is in vivo. As to conditions: mouse; male ICR mice, oral gavage 3 mg/kg, plasma. How it is done: For the pharmacokinetic experiment in mice, male ICR mice, 20 to 25 g, were used and fasted overnight. Three mice were taken and orally administered by gavage (3 mg/kg): blood was collected before the administration, and at 15 min, 30 min, 1 hour, 2 hours, 4 hours, 8 hours, and 24 hours after the administration. The blood samples were centrifuged at 6800 g for 6 min at 2 to 8° C., and plasma was collected and stored at −80° C. 20 μL of plasma at each time point was taken, and added with 200 μL of methanol containing 100 ng/mL internal standard. The mixture was vortexed, mixed evenly, and then centrifuged at 18000 g for 7 min at 2 to 8° ° C. 200 μL of the mixture was transferred to a 96-well injection plate for LC-MS/MS quantitative analysis. The main pharmacokinetic parameters were analyzed using WinNonlin 7.0 software with non-compartmental model.

T1 sequence (Q9NQS5 whole entry): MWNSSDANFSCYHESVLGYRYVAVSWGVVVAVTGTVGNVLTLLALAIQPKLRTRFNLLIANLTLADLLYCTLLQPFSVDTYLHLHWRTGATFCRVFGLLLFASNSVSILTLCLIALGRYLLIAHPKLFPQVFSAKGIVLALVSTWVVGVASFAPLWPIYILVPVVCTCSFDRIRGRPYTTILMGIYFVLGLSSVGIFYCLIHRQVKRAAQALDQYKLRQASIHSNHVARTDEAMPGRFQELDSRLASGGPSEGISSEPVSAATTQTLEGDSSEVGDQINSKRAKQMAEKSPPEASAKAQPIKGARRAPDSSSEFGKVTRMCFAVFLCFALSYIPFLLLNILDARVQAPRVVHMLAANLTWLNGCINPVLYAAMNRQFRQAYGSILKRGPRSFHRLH
Experimental for human GPR84 receptor: The antagonistic effect of the compound against GPR84 was determined in a CHO stably transfected cell line highly expressing the human GPR84 receptor. The stably transfected cells were cultured until 80% confluence; the cells were collected by trypsinization, counted, and then inoculated into a 384-well plate at 5 L/well. 10× compound working solution was prepared with 1× Stimulation Buffer. […] After the reaction was completed, the content of CAMP in the cells was quantified according to the method in the instructions of the cAMP assay kit (Perkin Elmer, Cat #TRF0263). The antagonistic effect (IC50 value) of the test compounds was calculated.

As a reminder, the IC50 is the concentration that inhibits the measured activity by half. Broadly, the AUC(0-t) is exposure summed from dosing to a finite time, without extrapolation to infinity. A word on the Cmax: it is the highest concentration seen after dosing. The term Tmax denotes the time at which the peak concentration occurs. The half-life is the time in which the quantity being followed falls by half. Low values mean fast loss, high ones slow loss. For `O=c1nc(OCC23CC(CO2)C3)cc2n1CCc1cc(C#CC3CC3)ccc1-2` [Compound I-1, 2-((2-oxabicyclo[2.1.1]hexan-1-yl)methoxy)-9-(cyclopropylethynyl)-6,7-dihydro-4H-pyrimido[6,1-α]isoquinolin-4-one], the IC50 on human GPR84 receptor amounted to 0.0272 µM. In addition, in data set [1], the AUC(0-t) came out at 54400 ng·h/mL, the Cmax was found to be 14800 ng/mL, the Tmax stood at 30 min and the half-life was 61.8 min.

Turning to `O=c1nc(OC[C@@H]2COCCO2)cc2n1CCc1cc(C#CC3CC3)ccc1-2` [Control compound, reference compound], in data set [1], the AUC(0-t) was 7280 ng·h/mL, the Cmax is 4120 ng/mL, the Tmax is 30 min and the half-life was 229 min.
